{"source": "patent US20150094279A1", "about": "“PHARMACEUTICAL COMPOSITION AND METHOD FOR INHIBITING INFLAMMATION” (CHINA MEDICAL UNIVERSITY, priority 2011, published 2015)", "key": {"Interleukin-1β (IL-1β)": {"system": "Interleukin-1β (IL-1β)", "experiment": "Sandwich ELISA quantification of IL-1β in supernatants of treated fibroblast-like synoviocytes", "type": "cell-based, human", "details": "fibroblast-like synoviocytes from patients with degenerative arthritis, 24 hours treatment, supernatant", "description": "(§1) The fibroblast-like synoviocytes (FLS) from five patients with degenerative arthritis were collected and cultured. First, the joint synovium of the patients were cut into small pieces, suspended in a DMEM (Dulbecco modified eagle's medium) culture medium, and incubated under an environment of 37° C. and 5% CO2 for 3 days. The culture medium contains 1.5 g/L sodium bicarbonate (S6297, Sigma-Aldrich, St Louis, Mo., USA), 1% penicillin-streptomycin-neomycin (P408, Sigma-Aldrich), and 10% fetal bovine serum (04-001-1A, Biological Industries, Grand Island, N.Y., USA).\n(§2) Non-attached cells were removed by a phosphate buffered saline solution (PBS), the culture medium was refreshed, and the attached cells were cultured for 2 weeks. After the above steps were repeated 3 to 6 times, the remaining cells were fibroblast-like synoviocytes. The obtained cells were then used for the following test.\n(§3) The fibroblast-like synoviocytes obtained form Experiment A were cultured in a serum-free culture medium for 24 hours. Then, the fibroblast-like synoviocytes were separately cultured in the following four culture medium for 24 hours: (1) a DMEM culture medium comprising only 10% fetal bovine serum (as a control group); (2) a DMEM culture medium comprising 10% fetal bovine serum and hyaluronic acid (having an average molecular weight of 600 KDa to 800 KDa); (3) a DMEM culture medium comprising 10% fetal bovine serum and vitamin C, vitamin D, or vitamin E; and (4) a DMEM culture medium comprising 10% fetal bovine serum, hyaluronic acid (having an average molecular weight of 600 KDa to 800 KDa), and vitamin C, vitamin D or vitamin E. The concentrations of hyaluronic acid and vitamin in the above four culture mediums were the same as the above Preparation Example.\n(§4) Then, the cells of the aforesaid four groups were collected and centrifuged, and the supernatants were collected for the following analysis.\n(§5) In this experiment, the concentrations of two cytokines related to degenerative arthritis in the collected supernatants from Experiment B were determined by using a sandwich binding protein assay kit (or sandwich ELISA kits, purchased from the eBioscience company) based on the standard curves according to the manufacturer's manual to analyze the expression level of these cytokines and determine the inflammation level of the cells. […] Each sample was analyzed twice, and an enzyme-linked immunosorbent assay (ELISA) reader (Sunrise Remote, TECAN) was used to carry out the measurement."}, "[1]": {"system": "tumor necrosis factor-α (TNF-α)", "experiment": "Sandwich ELISA quantification of TNF-α in supernatants of treated fibroblast-like synoviocytes", "type": "cell-based, human", "details": "fibroblast-like synoviocytes from patients with degenerative arthritis, 24 hours treatment, supernatant", "description": "as §1, §2, §3, §4, §5"}, "[2]": {"details": "Table 1 (vitamin C experiment), control 91.98"}, "[3]": {"details": "Table 1 (vitamin C experiment), control 95.57"}, "[4]": {"details": "Table 3 (vitamin E experiment), control 97.37"}, "[5]": {"details": "Table 3 (vitamin E experiment), control 98.09"}, "[6]": {"details": "Table 2 (vitamin D experiment), control 97.47"}, "[7]": {"details": "Table 2 (vitamin D experiment), control 106.78"}}}
{"compound": "O=C1O[C@H]([C@@H](O)CO)C(O)=C1O", "note": "[vitamin C]", "values": [{"measurement": "IL-1β average concentration", "setting": "Interleukin-1β (IL-1β); [2]", "value": 77.00, "unit": "pg/mL"}, {"measurement": "TNF-α average concentration", "setting": "[1]; [3]", "value": 75.56, "unit": "pg/mL"}]}
{"compound": "vitamin E", "values": [{"measurement": "IL-1β average concentration", "setting": "Interleukin-1β (IL-1β); [4]", "value": 75.57, "unit": "pg/mL"}, {"measurement": "TNF-α average concentration", "setting": "[1]; [5]", "value": 77.03, "unit": "pg/mL"}]}
{"compound": "hyaluronic acid", "values": [{"measurement": "IL-1β average concentration", "setting": "Interleukin-1β (IL-1β); [2]", "value": 78.79, "unit": "pg/mL"}, {"measurement": "IL-1β average concentration", "setting": "Interleukin-1β (IL-1β); [6]", "value": 76.03, "unit": "pg/mL"}, {"measurement": "IL-1β average concentration", "setting": "Interleukin-1β (IL-1β); [4]", "value": 78.33, "unit": "pg/mL"}, {"measurement": "TNF-α average concentration", "setting": "[1]; [3]", "value": 75.64, "unit": "pg/mL"}, {"measurement": "TNF-α average concentration", "setting": "[1]; [7]", "value": 82.52, "unit": "pg/mL"}, {"measurement": "TNF-α average concentration", "setting": "[1]; [5]", "value": 79.28, "unit": "pg/mL"}]}
{"compound": "vitamin D", "values": [{"measurement": "IL-1β average concentration", "setting": "Interleukin-1β (IL-1β); [6]", "value": 74.78, "unit": "pg/mL"}, {"measurement": "TNF-α average concentration", "setting": "[1]; [7]", "value": 79.52, "unit": "pg/mL"}]}
